Consider 15 compounds from patent publication US20240317735A1, “HYDROISOQUINOLINE OR HYDRONAPHTHYRIDINE COMPOUNDS FOR THE TREATMENT OF AUTOIMMUNE DISEASE” (Hoffmann-La Roche Inc., priority 2020, published 2024).

Where two headings read alike, the source gives them in different places.

Data set [1] has as its target T1, TLR9 (Homo sapiens, UniProt Q9NR96).
T1 sequence (Q9NR96 26-1032): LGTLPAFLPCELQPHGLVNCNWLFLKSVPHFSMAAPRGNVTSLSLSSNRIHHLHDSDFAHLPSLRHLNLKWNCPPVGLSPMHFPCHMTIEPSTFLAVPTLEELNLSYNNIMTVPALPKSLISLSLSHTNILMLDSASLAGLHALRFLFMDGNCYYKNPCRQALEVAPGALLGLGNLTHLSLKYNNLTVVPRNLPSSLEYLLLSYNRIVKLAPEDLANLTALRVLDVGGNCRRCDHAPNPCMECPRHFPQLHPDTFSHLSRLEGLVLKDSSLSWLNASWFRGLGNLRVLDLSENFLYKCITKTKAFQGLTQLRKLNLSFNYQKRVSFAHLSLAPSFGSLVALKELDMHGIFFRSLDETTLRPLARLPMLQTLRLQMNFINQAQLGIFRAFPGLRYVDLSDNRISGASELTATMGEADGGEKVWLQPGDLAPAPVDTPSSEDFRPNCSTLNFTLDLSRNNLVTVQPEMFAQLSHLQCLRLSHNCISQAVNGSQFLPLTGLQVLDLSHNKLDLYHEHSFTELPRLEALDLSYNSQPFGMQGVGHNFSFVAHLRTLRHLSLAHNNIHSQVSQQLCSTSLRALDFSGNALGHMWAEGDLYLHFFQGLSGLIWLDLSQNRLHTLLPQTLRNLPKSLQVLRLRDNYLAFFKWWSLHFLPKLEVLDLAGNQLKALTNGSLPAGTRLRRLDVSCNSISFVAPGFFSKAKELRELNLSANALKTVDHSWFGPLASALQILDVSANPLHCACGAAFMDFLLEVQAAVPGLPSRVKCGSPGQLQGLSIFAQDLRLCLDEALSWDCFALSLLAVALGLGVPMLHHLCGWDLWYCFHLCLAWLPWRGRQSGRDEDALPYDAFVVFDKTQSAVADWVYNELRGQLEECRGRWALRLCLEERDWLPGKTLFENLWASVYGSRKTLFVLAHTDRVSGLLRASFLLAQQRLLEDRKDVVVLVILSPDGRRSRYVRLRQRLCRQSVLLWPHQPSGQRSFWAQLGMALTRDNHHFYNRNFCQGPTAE
The data set can be described thus: Human PBMC cell-based assay (CpG ODN 2216 stimulation). More on the design: These cells express TLR7, TLR8, or TLR9, and therefore are natural responders to respective ligand stimulation; endogenous in cells; host or cells: human PBMC from healthy donor whole blood. To be noted: CpG ODN 2216 at 1 μM, overnight, read-out: hPBMC/TLR9 IC50. An excerpt: Unlike the HEK reporter cell lines, human peripheral blood mononuclear cell (PBMC) represents primary human immune cells in blood mainly consisting of lymphocytes, monocytes, and dendritic cells. These cells express TLR7, TLR8, or TLR9, and therefore are natural responders to respective ligand stimulation. Upon activation of these TLRs, PBMCs secrete similar cytokines and chemokines in vitro and in vivo, and therefore the in vitro potency of a TLR7/8/9 antagonist in human PBMC is readily translatable to its pharmacodynamics response in vivo.
Human peripheral blood mononuclear cells (PBMC) were isolated from freshly-drawn lithium-heparinized (Lithium Heparin Plus blood Collection tube, BD Vacutainer®) healthy donor whole blood by density gradient (Ficoll-Paque™ PLUS, GE Healthcare life Sciences). Briefly, 50 mL of blood was diluted with 25 mL PBS (without Ca^2+, Mg^2+) in a 50 mL conical tube with porous barrier (Leucosep tube, Greiner bio-one), where 15.5 mL Ficoll-Paque was under laid after spinning. Tubes were centrifuged for 20 minutes at 800×g (1946 rpm) with the brake in the off position, and PBMC were collected from the buffy coat. Cells were then washed twice in PBS, and red blood cells were lysed by suspension in 2 mL (Red Blood Cell Lysis Buffer, Alfa Aesar) for 5-10 minutes at room temperature. After a final wash in PBS, PBMC were resuspended at a final concentration of 2×10^6 cells/mL in RPMI-1640 media with GlutaMAX™ (Gibco) supplemented with 10% Fetal Bovine Serum (Sigma) and plated at 150 μL/well (3×10^5 cells/well) in tissue culture treated round bottom 96-well plates (Corning Incorporated). Antagonist compounds (compounds of this invention) solubilized and serial diluted in 100% DMSO were added in duplicate to cells to yield a final concentration of 1% DMSO (v/v). PBMC were incubated with antagonist compounds for 30 minutes at 37° C., 5% CO2 before adding various TLR agonist reagents in 48 μL complete media per well as follows (final concentrations indicated): CpG ODN 2216 (InvivoGen) at 1 μM for TLR9, ORN 06/LyoVec (InvivoGen) at […] for TLR8 and R848 (InvivoGen) at 1p g/mL for TLR7 and TLR8. PBMC were incubated overnight at 37° C. with 5% CO2. Cell culture supernatants were collected, and levels of various human cytokines were assessed by Luminex assay (ProcartaPlex™ Multiplex Immunoassay, Invitrogen) or ELISA procedure according to the manufacturer's recommended protocol (eBioscience, ThermoFisher Scientific). Viability of the cells was also checked with Cell Viability Assay (CellTiter Glo®Luminescent Cell Viability Assay, Promega).

Data set [2] is described as follows: Single dose pharmacokinetics (PK) study in male Wister-Han rats. Format: in vivo, rat. As for the experimental part:
Pharmacokinetic properties of selected compounds were assessed by single dose PK studies in Male Wister-Han Rats (vendor: Beijing Vital River Laboratory Animal Technology Co., Ltd). Briefly, two groups of animals were administered a single dose of respective compound intravenously (IV, bolus) at 2 mg/kg or orally (PO, by gavage) at 10 mg/kg. Blood samples (approximately 150 μL) were collected via Jugular vein at 5 min (only for IV), 15 min, 30 min, 1 h, 2 h, 4 h, 7 h and 24 h post-dose. Blood samples were placed into tubes containing EDTA-K2 anticoagulant and centrifuged at 3000 rpm for 15 min at 4° C. to separate plasma from the samples. After centrifugation, the resulting plasma was transferred to clean tubes for bioanalysis with LC/MS/MS. The pharmacokinetic parameters were calculated using non-compartmental analysis. The volume of distribution (Vss), half-life (T1/2) and clearance (CL) were obtained based on the plasma concentration-time curve after IV dose. The peak concentration (Cmax) was recorded directly from experimental observations after PO dose. The area under the plasma concentration-time curve (AUC0-last) was calculated using the linear trapezoidal rule up to the last detectable concentration. The bioavailability (F) was calculated based on the dose normalized AUC0-last after IV and PO dose.
The Vss of a drug represents the degree to which a drug is distributed in body tissue rather than the plasma. Vss is directly proportional with the amount of drug distributed into tissue. A higher Vss indicates a greater amount of tissue distribution.

Take `C[C@H]1CN(c2ccnc3c2cnn3C)Cc2ccc(N3CCN[C@@H](CO)C3)cc21` [Example 50, [(2R)-4-[(4R)-4-methyl-2-(1-methylpyrazolo[3,4-b]pyridin-4-yl)-3,4-dihydro-1H-isoquinolin-6-yl]piperazin-2-yl]methanol]: the IC50 in data set [1] amounted to 475 nM.

In data set [2] (dose normalized AUC0-last PO 10 mg/kg vs IV 2 mg/kg), `CO[C@@H]1CN(c2ccc3c(c2)[C@@H](C)CN(c2cc(C)nc4c2cnn4C)C3)C[C@H]1N` [Example 23, (3R,4R)-4-methoxy-1-[(4R)-2-(1,6-dimethylpyrazolo[3,4-b]pyridin-4-yl)-4-methyl-3,4-dihydro-1H-isoquinolin-6-yl]pyrrolidin-3-amine] yielded an F of 73%. Besides, the AUC(0-t) in data set [2] (rat, IV 2 mg/kg, plasma, read-out: IV AUC0-last) was 7550 ng·h/mL. Besides, the concentration in data set [2] (rat, PO 10 mg/kg, plasma) peaked (Cmax) at 1600 ng/mL. In addition, the AUC(0-t) in data set [2] (rat, PO 10 mg/kg, plasma, read-out: PO AUC0-last) turned out to be 27500 ng·h/mL. Further, in data set [2] (rat, plasma, IV 2 mg/kg), the clearance – broadly, a measure of how efficiently the substance is removed, as volume per time – worked out at 3.7 mL/min/kg and the half-life (as a rule, how long it takes for the measured level to halve) is 10.5 h. Moreover, the Vd in data set [2] (rat, plasma, IV 2 mg/kg, read-out: Vss) was 2.7 L/kg. For the same compound, the IC50 in data set [1] was found to be 240 nM.

In the case of `Cc1cc(N2Cc3ccc(N4CCC(N)CC4)nc3[C@@H](C)C2)c2cnn(C)c2n1` [Example 58, 1-[(8S)-6-(1,6-dimethylpyrazolo[3,4-b]pyridin-4-yl)-8-methyl-7,8-dihydro-5H-1,6-naphthyridin-2-yl]piperidin-4-amine], the IC50 in data set [1] is 277 nM.

For `C[C@H]1CN(c2ccnc3c2cnn3C)Cc2ccc(OC3CN(C4CCNCC4)C3)cc21` [Example 41, (4R)-4-methyl-2-(1-methylpyrazolo[3,4-b]pyridin-4-yl)-6-[1-(4-piperidyl)azetidin-3-yl]oxy-3,4-dihydro-1H-isoquinoline], the IC50 in data set [1] came to 286 nM.

With `CC1CN(c2ccnc3c2cnn3C)Cc2ccc(N3CCC4(CCNCC4)CC3)cc21` (stereo not shown) [Example 4, 3-[4-methyl-2-(1-methylpyrazolo[3,4-b]pyridin-4-yl)-3,4-dihydro-1H-isoquinolin-6-yl]-3,9-diazaspiro[5.5]undecane], the IC50 in data set [1] is 265 nM.

As for `CO[C@H]1CN(c2ccc3c(n2)[C@@H](C)CN(c2cc(C)nc4c2cnn4C)C3)CC[C@@H]1N` [Example 65, (3S,4S)-3-methoxy-1-[(8S)-6-(1,6-dimethylpyrazolo[3,4-b]pyridin-4-yl)-8-methyl-7,8-dihydro-5H-1,6-naphthyridin-2-yl]piperidin-4-amine], in data set [1], the IC50 was 371 nM.

On to `Cc1cc(N2Cc3ccc(N4CCC5(CCNCC5)CC4)cc3C(C)C2)c2cnn(C)c2n1` (stereo not shown) [Example 5, 3-[2-(1,6-dimethylpyrazolo[3,4-b]pyridin-4-yl)-4-methyl-3,4-dihydro-1H-isoquinolin-6-yl]-3,9-diazaspiro[5.5]undecane], for which the IC50 in data set [1] was determined as 156 nM.

Turning to `C[C@H]1CN(c2ccnc3c2cnn3C)Cc2ccc(N3CCC(N4CC(N)C4)CC3)cc21` [Example 28, 1-[1-[(4R)-4-methyl-2-(1-methylpyrazolo[3,4-b]pyridin-4-yl)-3,4-dihydro-1H-isoquinolin-6-yl]-4-piperidyl]azetidin-3-amine], the IC50 in data set [1] was 271 nM.

`Cc1cc(N2Cc3ccc(N4C[C@@H](N)[C@H](O)C4)cc3[C@@H](C)C2)c2cnn(C)c2n1` [Example 47, trans-4-amino-1-[(4R)-2-(1,6-dimethylpyrazolo[3,4-b]pyridin-4-yl)-4-methyl-3,4-dihydro-1H-isoquinolin-6-yl]pyrrolidin-3-ol]: the IC50 in data set [1] came out at 290 nM.

With `CO[C@H]1CN(c2cc3c(cn2)CN(c2cc(C)nc4c2cnn4C)C[C@@H]3C)CC[C@@H]1N` [Example 73, (3S,4S)-3-methoxy-1-[(5R)-7-(1,6-dimethylpyrazolo[3,4-b]pyridin-4-yl)-5-methyl-6,8-dihydro-5H-2,7-naphthyridin-3-yl]piperidin-4-amine], the IC50 in data set [1] worked out at 340 nM.

For `Cc1cc(N2Cc3cnc(N4CCNCC4)cc3[C@@H](C)C2)c2cnn(C)c2n1` [Example 74, (4R)-2-(1,6-dimethylpyrazolo[3,4-b]pyridin-4-yl)-4-methyl-6-piperazin-1-yl-3,4-dihydro-1H-2,7-naphthyridine], the IC50 in data set [1] was found to be 250 nM.

For `Cc1cc(N2Cc3ccc(OC[C@@H]4CNCCN4)cc3[C@@H](C)C2)c2cnn(C)c2n1` [Example 31, (4R)-2-(1,6-dimethylpyrazolo[3,4-b]pyridin-4-yl)-4-methyl-6-[[(2S)-piperazin-2-yl]methoxy]-3,4-dihydro-1H-isoquinoline], in data set [1], the IC50 stood at 214 nM.

On to `Cn1ncc2c(N3CCc4cc(N5CCNCC5)ccc4C3)ccnc21` [Example 3, 2-(1-methylpyrazolo[3,4-b]pyridin-4-yl)-6-piperazin-1-yl-3,4-dihydro-1H-isoquinoline], for which, in data set [1], the IC50 came to 434 nM.

On to `C[C@H]1CN(c2ccnc3c2cnn3C)Cc2ccc(N3CCN(c4cc5c(cn4)CCNC5)CC3)cc21` [Example 9, 7-[4-[(4R)-4-methyl-2-(1-methylpyrazolo[3,4-b]pyridin-4-yl)-3,4-dihydro-1H-isoquinolin-6-yl]piperazin-1-yl]-1,2,3,4-tetrahydro-2,6-naphthyridine], for which the IC50 in data set [1] came out at 326 nM.

As to `C[C@H]1CN(c2ccnc3c2cnn3C)Cc2ccc(OC[C@H]3CNCCN3)cc21` [Example 18, (4R)-4-methyl-2-(1-methylpyrazolo[3,4-b]pyridin-4-yl)-6-[[(2R)-piperazin-2-yl]methoxy]-3,4-dihydro-1H-isoquinoline], the IC50 in data set [1] came out at 365 nM.
